From patent US20240190892A1, “PLASMA KALLIKREIN INHIBITORS” (Merck Sharp & Dohme LLC, priority 2021, published 2024)
pIC50: −log10 of the molar value.

Key:
Coagulation factor XIa = Coagulation factor XIa (Homo sapiens (Human), UniProt P03951); assay: Factor XIa Assay; type: biochemical; conditions: human factor XIa 0.04 nM, substrate GPR-AFC, 30 min pre-incubation at 25° C., pH 7.4; read-out: FXIa IC50
Human plasma kallikrein = Human plasma kallikrein (Homo sapiens (Human), UniProt P03952); assay: Plasma Kallikrein Assay; type: biochemical; conditions: purified Human plasma kallikrein 0.5 nM, substrate Acetyl-K-P-R-AFC, pH 7.4; read-out: PKal IC50
Human plasma kallikrein, sequence (P03952 391-638 limits assumed): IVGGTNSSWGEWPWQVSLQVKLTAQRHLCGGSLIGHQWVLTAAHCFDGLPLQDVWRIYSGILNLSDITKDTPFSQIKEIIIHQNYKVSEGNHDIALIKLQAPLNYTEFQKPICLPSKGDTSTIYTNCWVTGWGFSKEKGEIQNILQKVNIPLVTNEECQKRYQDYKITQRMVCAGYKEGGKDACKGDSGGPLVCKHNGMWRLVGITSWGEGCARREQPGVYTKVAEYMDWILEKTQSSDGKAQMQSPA
Human plasma kallikrein, sequence (P03952 20-390 partner limits assumed): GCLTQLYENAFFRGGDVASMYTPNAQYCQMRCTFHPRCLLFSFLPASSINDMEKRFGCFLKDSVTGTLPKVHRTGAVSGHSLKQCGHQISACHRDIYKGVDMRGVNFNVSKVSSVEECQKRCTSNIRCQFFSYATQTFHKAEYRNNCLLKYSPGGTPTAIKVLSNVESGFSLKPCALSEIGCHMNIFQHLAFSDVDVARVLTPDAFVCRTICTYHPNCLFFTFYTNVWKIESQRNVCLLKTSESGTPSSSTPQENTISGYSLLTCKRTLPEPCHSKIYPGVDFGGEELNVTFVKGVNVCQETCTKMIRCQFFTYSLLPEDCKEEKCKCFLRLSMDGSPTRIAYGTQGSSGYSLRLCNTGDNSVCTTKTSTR
In short: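 Purified human plasma kallikrein (0.5 nM) was tested in 50 mM HEPES pH 7.4 with 150 mM NaCl, 5 mM CaCl2 and 0.1% PEG 8000, using Acetyl-K-P-R-AFC substrate at a final concentration ≤0.2 Km after enzyme–inhibitor equilibration. Initial-rate fluorescence was read at 405/510 nm. IC50 came from a four-parameter fit, and Ki from Cheng–Prusoff.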

Coagulation factor XIa, sequence (P03951 388-625 limits assumed): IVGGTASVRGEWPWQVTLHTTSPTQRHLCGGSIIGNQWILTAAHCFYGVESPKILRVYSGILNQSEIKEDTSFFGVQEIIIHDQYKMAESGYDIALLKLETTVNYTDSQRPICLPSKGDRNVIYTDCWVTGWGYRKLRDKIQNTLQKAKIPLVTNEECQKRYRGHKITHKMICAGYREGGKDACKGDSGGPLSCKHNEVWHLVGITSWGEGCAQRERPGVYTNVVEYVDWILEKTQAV
Coagulation factor XIa, sequence (P03951 19-387 partner limits assumed): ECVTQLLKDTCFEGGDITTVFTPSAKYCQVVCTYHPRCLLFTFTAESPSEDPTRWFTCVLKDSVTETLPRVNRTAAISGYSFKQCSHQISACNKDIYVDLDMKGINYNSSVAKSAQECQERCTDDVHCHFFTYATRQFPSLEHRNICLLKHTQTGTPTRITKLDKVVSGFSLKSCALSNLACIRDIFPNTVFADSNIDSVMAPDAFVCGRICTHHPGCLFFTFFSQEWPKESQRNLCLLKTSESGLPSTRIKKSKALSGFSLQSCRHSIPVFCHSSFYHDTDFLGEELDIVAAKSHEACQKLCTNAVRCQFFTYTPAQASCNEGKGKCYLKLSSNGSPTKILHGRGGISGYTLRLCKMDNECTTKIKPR

Row | SMILES | pIC50 (Coagulation factor XIa) | pIC50 (Human plasma kallikrein)
1 | O=C1Nc2ccc(Cl)c(F)c2[C@]2(CCN(c3cncc(C(=O)NCc4ccc(N5CCCCC5)nc4)n3)C2)O1 [Example 41, (S)-6-(6-Chloro-5-fluoro-2-oxo-1,2-dihydrospiro[benzo[d][1,3]oxazine-4,3′-pyrrolidin]-1′-yl)-N-((6-(piperidin-1-yl)pyridin-3-yl)methyl)pyrazine-2-carboxamide] | 5.00 | 7.45
2 | CN1CC(F)(F)C[C@H]1c1ccc(CNC(=O)c2cnnc(N3CCC4(C3)OC(=O)Nc3ccc(Cl)c(F)c34)c2)cc1 (stereo partly drawn) [Example 12, (S)-6-(6-Chloro-5-fluoro-2-oxo-1,2-dihydrospiro[benzo[d][1,3]oxazine-4,3′-pyrrolidin]-1′-yl)-N-(4-(4,4-difluoro-1-methylpyrrolidin-2-yl)benzyl)pyridazine-4-carboxamide] | 5.00 | 7.40
3 | O=C1Nc2ccc(Cl)c(F)c2[C@]2(CCN(c3cc(C(=O)NCc4ccc(N5CCC(C(F)(F)F)C5)nc4)cnn3)C2)O1 (stereo in doubt) [Example 9, (S)-6-(6-Chloro-5-fluoro-2-oxo-1,2-dihydrospiro[benzo[d][1,3]oxazine-4,3′-pyrrolidin]-1′-yl)-N-((6-(3-(trifluoromethyl)pyrrolidin-1-yl)pyridin-3-yl)methyl)pyridazine-4-carboxamide] | 5.00 | 8.12
4 | O=C1Nc2ccc(Cl)c(F)c2[C@]2(CCN(c3cncc(C(=O)NCc4ccc(N5CCC5)nc4)n3)C2)O1 [Example 37, (S)-N-((6-(Azetidin-1-yl)pyridin-3-yl)methyl)-6-(6-chloro-5-fluoro-2-oxo-1,2dihydrospiro[benzo[d][1,3]oxazine-4,3′-pyrrolidin]-1′-yl)pyrazine-2-carboxamide] | 5.00 | 7.35
5 | CCC(F)(F)NCc1ccc(CNC(=O)c2cnnc(N3CC[C@]4(C3)OC(=O)Nc3ccc(Cl)c(F)c34)c2)cc1 [Example 44, (S)-6-(6-Chloro-5-fluoro-2-oxo-1,2-dihydrospiro[benzo[d][1,3]oxazine-4,3′-pyrrolidin]-1′-yl)-N-(4-(((1,1-difluoropropyl)amino)methyl)benzyl)pyridazine-4-carboxamide] | 5.12 | 7.23
6 | O=C1Nc2ccc(Cl)c(F)c2[C@]2(CCN(c3cncc(C(=O)NCc4ccc(N5CC6CC6C5)nc4)n3)C2)O1 (stereo partly drawn) [Example 40, N-((6-(3-Azabicyclo[3.1.0]hexan-3-yl)pyridin-3-yl)methyl)-6-((S)-6-chloro-5-fluoro-2-oxo-1,2-dihydrospiro[benzo[d][1,3]oxazine-4,3′-pyrrolidin]-1′-yl)pyrazine-2-carboxamide] | 5.00 | 7.73
